Data reported in US5824771A, “Cyclic CRF agonists” (The Salk Institute for Biological Studies, priority 1997, dated 1998).
Bridge positions count the residues as written; N and C are the ends. Square brackets hold non-standard residues; d marks the D form. Ends that are not written are not given here. Peptide text beside a SMILES is read from it. Nle = CCCC[C@H](N)C(=O)O

What was measured:
[1] = test system: rat anterior pituitary cells; assay: In vitro stimulation of ACTH and β-endorphin secretion by cultured rat pituitary cells, potency compared with oCRF (Standard) or r/hCRF; type: cell-based; conditions: for stimulation of secretion of ACTH and β-END-LI (testing by the general procedure), in words: general procedure of Example 1; for in vitro potency to stimulate secretion of ACTH relative to the Standard: relative to the laboratory Standard (synthetic oCRF), cultured rat pituitary cells, limits in parentheses; for in vitro biopotency, comparison in words: compared with the Standard or with a named analog
Method: (§1) The cyclic CRF agonists are examined for their effects on the secretion of ACTH and β-endorphin in vitro and also in vivo. […] In vivo testing is carried out using the general procedure set forth in C. Rivier et al., Science, 218, 377 (1982).

[2] = Lowering of blood pressure on peripheral or iv administration; type: in vivo; conditions: peripheral administration
[3] = test system: ACTH and β-END-LI secretion; assay: Secretion of ACTH and β-END-LI on administration of the peptide (in vivo testing)
Method: as §1

Molecule	stimulation of secretion of ACTH and β-END-LI (testing by the general procedure), in words [1]	lowering of blood pressure when administered peripherally, in words [2]	in vitro potency to stimulate secretion of ACTH relative to the Standard [1]	stimulation of secretion of ACTH and β-END-LI on administration of the peptide, in words [3]	in vitro biopotency, comparison in words [1]
CCCC[C@H](NC(=O)[C@H](CCCCN)NC(=O)[C@H](C)NC(=O)[C@H](CCCNC(=N)N)NC(=O)[C@H](Cc1c[nH]cn1)NC(=O)[C@@H](NC(=O)[C@H](CCCC)NC(=O)[C@H](CC(N)=O)NC(=O)[C@H](CCCNC(=N)N)NC(=O)[C@H](CC(C)C)NC(=O)[C@H](CCCC)NC(=O)[C@H](Cc1c[nH]cn1)NC(=O)[C@@H](Cc1ccccc1)NC(=O)[C@@H](NC(=O)[C@H](CC(C)C)NC(=O)[C@H](CC(=O)O)NC(=O)[C@@H](NC(=O)[C@H](CO)NC(C)=O)[C@@H](C)CC)[C@@H](C)O)[C@@H](C)CC)C(=O)N[C@@H](CCC(=O)O)C(=O)NCC(=O)N[C@@H](CCC(=O)O)C(=O)N[C@@H](CCCNC(=N)N)C(=O)N[C@@H](CCC(=O)O)C(=O)N[C@H]1CCC(=O)NCCCC[C@@H](C(=O)N[C@@H](CC(N)=O)C(=O)N[C@@H](CCCNC(=N)N)C(=O)N[C@@H](CC(N)=O)C(=O)N[C@@H](CC(C)C)C(=O)N[C@@H](CC(C)C)C(=O)N[C@@H](CC(=O)O)C(=O)N[C@@H](CCC(=O)O)C(=O)N[C@H](C(N)=O)C(C)C)NC(=O)[C@@H](CC(C)C)NC(=O)[C@H](C)NC1=O [Example 16 E, (cyclo 30-33)[Ac-Ser^7, D-Phe^12, Nle^14,18,24, Glu^30, D-Leu^32, Lys^33]-maggy urotensin(7-41)] (Ac-SIDLT[dF]H[Nle]LRN[Nle]IHRAK[Nle]EGEREEA[dL]KNRNLLDEV-NH2; lactam 24-27)	stimulate the secretion of ACTH and β-END-LI	very significant lowering of blood pressure			
CCCC[C@H](NC(=O)[C@H](CCC(=O)O)NC(=O)[C@@H](NC(=O)[C@H](CCCC)NC(=O)[C@H](CC(N)=O)NC(=O)[C@H](CCCNC(=N)N)NC(=O)[C@H](CC(C)C)NC(=O)[C@H](CC(C)C)NC(=O)[C@H](Cc1c[nH]cn1)NC(=O)[C@@H](Cc1ccccc1)NC(=O)[C@@H](NC(=O)[C@H](CC(C)C)NC(=O)[C@H](CC(=O)O)NC(=O)[C@@H](NC(=O)[C@H](CO)NC(C)=O)[C@@H](C)CC)[C@@H](C)O)[C@@H](C)CC)C(=O)N[C@@H](C)C(=O)N[C@@H](CCCNC(=N)N)C(=O)N[C@@H](CC(N)=O)C(=O)N[C@@H](CCC(=O)O)C(=O)N[C@@H](CC(N)=O)C(=O)N[C@@H](CCC(N)=O)C(=O)N[C@@H](CCCNC(=N)N)C(=O)N[C@@H](CCC(=O)O)C(=O)N[C@H]1CCC(=O)NCCCC[C@@H](C(=O)N[C@@H](CC(N)=O)C(=O)N[C@@H](CCCNC(=N)N)C(=O)N[C@@H](CCCCN)C(=O)N[C@@H](Cc2ccc(O)cc2)C(=O)N[C@@H](CC(C)C)C(=O)N[C@@H](CC(=O)O)C(=O)N[C@@H](CCC(=O)O)C(=O)N[C@H](C(N)=O)C(C)C)NC(=O)[C@@H](C)NC(=O)[C@H](C)NC1=O [Example 16 F, (cyclo 30-33)[Ac-Ser^7, D-Phe^12, Nle^18,21, Glu^30, D-Ala^32, Lys^33]-carp urotensin(7-41)] (Ac-SIDLT[dF]HLLRN[Nle]IE[Nle]ARNENQREEA[dA]KNRKYLDEV-NH2; lactam 24-27)	stimulate the secretion of ACTH and β-END-LI	very significant lowering of blood pressure			
CCCC[C@H](NC(=O)[C@H](CCCCN)NC(=O)[C@H](C)NC(=O)[C@H](CCCNC(=N)N)NC(=O)[C@H](Cc1c[nH]cn1)NC(=O)[C@@H](NC(=O)[C@H](CCCC)NC(=O)[C@H](CC(N)=O)NC(=O)[C@H](CCCNC(=N)N)NC(=O)[C@H](CC(C)C)NC(=O)[C@H](CCCC)NC(=O)[C@H](Cc1c[nH]cn1)NC(=O)[C@@H](Cc1ccccc1)NC(=O)[C@@H](NC(=O)[C@H](CC(C)C)NC(=O)[C@H](CC(=O)O)NC(=O)[C@@H](NC(=O)[C@H](CO)NC(C)=O)[C@@H](C)CC)[C@@H](C)O)[C@@H](C)CC)C(=O)N[C@@H](CCC(=O)O)C(=O)NCC(=O)N[C@@H](CCC(=O)O)C(=O)N[C@@H](CCCNC(=N)N)C(=O)N[C@@H](CCC(=O)O)C(=O)N[C@H]1CCC(=O)NCCCC[C@@H](C(=O)N[C@@H](CC(N)=O)C(=O)N[C@@H](CCCNC(=N)N)C(=O)N[C@@H](CC(N)=O)C(=O)N[C@@H](CC(C)C)C(=O)N[C@@H](CCCC)C(=O)N[C@@H](CC(=O)O)C(=O)N[C@@H](CCC(=O)O)C(=O)N[C@H](C(N)=O)C(C)C)NC(=O)[C@@H](CC(C)C)NC(=O)[C@H](C)NC1=O [Example 16 G, (cyclo 30-33)[Ac-Ser^7, D-Phe^12, Nle^14,18,24,38, Glu^30, D-Leu^32, Lys^33]-sole urotensin(7-41)] (Ac-SIDLT[dF]H[Nle]LRN[Nle]IHRAK[Nle]EGEREEA[dL]KNRNL[Nle]DEV-NH2; lactam 24-27)	stimulate the secretion of ACTH and β-END-LI	very significant lowering of blood pressure			
CCCC[C@H](NC(=O)[C@H](CCCCN)NC(=O)[C@H](C)NC(=O)[C@H](CCCNC(=N)N)NC(=O)[C@H](Cc1c[nH]cn1)NC(=O)[C@@H](NC(=O)[C@H](CCCC)NC(=O)[C@H](CC(N)=O)NC(=O)[C@H](CCCNC(=N)N)NC(=O)[C@H](CC(C)C)NC(=O)[C@H](CCCC)NC(=O)[C@H](Cc1c[nH]cn1)NC(=O)[C@@H](Cc1ccccc1)NC(=O)[C@@H](NC(=O)[C@H](CC(C)C)NC(=O)[C@H](CC(=O)O)NC(=O)[C@@H](NC(=O)[C@H](CO)NC(C)=O)[C@@H](C)CC)[C@@H](C)O)[C@@H](C)CC)C(=O)N[C@@H](CCC(=O)O)C(=O)NCC(=O)N[C@@H](CCC(=O)O)C(=O)N[C@@H](CCCNC(=N)N)C(=O)N[C@@H](CCC(=O)O)C(=O)N[C@H]1CCC(=O)NCCCC[C@@H](C(=O)N[C@@H](CC(N)=O)C(=O)N[C@@H](CCCNC(=N)N)C(=O)N[C@@H](CC(N)=O)C(=O)N[C@@H](CC(C)C)C(=O)N[C@@H](CC(C)C)C(=O)N[C@@H](CC(=O)O)C(=O)N[C@@H](CCC(=O)O)C(=O)N[C@H](C(N)=O)C(C)C)NC(=O)[C@@H](CCC(N)=O)NC(=O)[C@H](C)NC1=O [Example 16 H, (cyclo 30-33)[Ac-Ser^7, D-Phe^12, Nle^14,18,24, Glu^30, D-Gln^32, Lys^33]-flounder urotensin(7-41)] (Ac-SIDLT[dF]H[Nle]LRN[Nle]IHRAK[Nle]EGEREEA[dQ]KNRNLLDEV-NH2; lactam 24-27)	stimulate the secretion of ACTH and β-END-LI	very significant lowering of blood pressure			
(cyclo 29-32)[D-Leu^11, Nle^17, Glu^29, Lys^32 ]-sauvagine [Example 3 C]	stimulates the secretion of ACTH and β-END-LI	very significant lowering of blood pressure	about 5.73 (2.61-13.51) times		
(cyclo 30-33)[Ac-Agl(Me,Ac)^7, D-Phe^12, Nle^21,38, Glu^30, Lys^33 ]-r/hCRF(7-41) [Example 19 G]			about 3.4 times	stimulates the secretion of ACTH and β-END-LI	
(cyclo 30-33)[Ac-D/L-Agl(Me,For)^7, D-Phe^12, Nle^21,38, Glu^30, Lys^33 ]-r/hCRF(7-41) [Example 19 D]				stimulates the secretion of ACTH and β-END-LI	less potent than the Standard
(cyclo 30-33)[Ac-D/L-Agl^7, D-Phe^12, Nle^21,38, Glu^30, Lys^33 ]-r/hCRF(7-41) [Example 19]				stimulates the secretion of ACTH and β-END-LI	
(cyclo 30-33)[Ac-D/L-MeAgl^7, D-Phe^12, Nle^21,38, Glu^30, Lys^33 ]-r/hCRF(7-41) [Example 19 B]				stimulate the secretion of ACTH and β-END-LI	less potent than the Standard
(cyclo 30-33)[Ac-MeAgl(For)^7, D-Phe^12, Nle^21,38, Glu^30, Lys^33 ]-r/hCRF(7-41) [Example 19 E]				stimulates the secretion of ACTH and β-END-LI	
(cyclo 30-33)[Ac-Pro^4, D-Phe^12, Nle^21,38, Glu^30, D-His^32, Lys^33 ]-oCRF(4-41) [Example 3]	highly stimulates the secretion of ACTH and β-END-LI	very significant lowering of blood pressure			
(cyclo 30-33)[Ac-Ser(OMe)^7, D-Phe^12, Nle^21,38, Glu^30, Lys^33 ]-r/hCRF(7-41) [Example 19 I]				stimulates the secretion of ACTH and β-END-LI	
SEDPP[Nle]SIDLT[dF]H[Nle]LRN[Nle]IHRAK[Nle]EGEREEA[dQ]KNRNLLDEV-NH2 (lactam 30-33) [Example 3 H, (cyclo 30-33)[Nle^6,14,18,24, D-Phe^12, Glu^30, D-Gln^32, Lys^33]-flounder urotensin]	stimulates the secretion of ACTH and β-END-LI	very significant lowering of blood pressure			
SEEPP[Nle]SIDLT[dF]H[Nle]LRN[Nle]IHRAK[Nle]EGEREEA[dL]KNRNLLDEV-NH2 (lactam 30-33) [Example 3 E, (cyclo 30-33)[Nle^6,14,18,24, D-Phe^12, Glu^30, D-Leu^32, Lys^33]-maggy urotensin]	stimulates the secretion of ACTH and β-END-LI	very significant lowering of blood pressure			
SEEPP[Nle]SIDLT[dF]H[Nle]LRN[Nle]IHRAK[Nle]EGEREEA[dL]KNRNL[Nle]DEV-NH2 (lactam 30-33) [Example 3 G, (cyclo 30-33)[Nle^6,14,18,24,381 D-Phe^12 Glu^301 D-Leu^32, Lys^33]-sole urotensin]	stimulates the secretion of ACTH and β-END-LI	very significant lowering of blood pressure			
